Measurements from patent publication US8192962B2, “Processes for detecting toxic substances” (Daikin Industries, Ltd., priority 2001, dated 2012).

System: Metabolism protein genes
Assay: DNA chip mRNA expression in yeast, metabolism protein genes (Table 7)
Type: cell-based, Saccharomyces cerevisiae S288C
Procedure, shortened: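 Value is the scanned fluorescence intensity ratio of exposed versus chemical-free cells. Log-phase S288C yeast in YPD at 25° C. received one toxic substance for two hours, dosed to slow growth without killing; Cy3/Cy5-labeled cDNA from oligo-dT-purified mRNA was hybridized to a whole-genome chip at 65° C.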

CCCCCCCCCCCCOS(=O)(=O)[O-].[Na+] [(18), sodium lauryl sulfate]
The level of expressed mRNA in the presence of chemical substance/The level of expressed mRNA in the absence of chemical substance (yeast gene YKL035W): 1.9
level of expressed mRNA in the presence/in the absence of chemical substance (yeast gene YKL060C): 1.7
The level of expressed mRNA in the presence of chemical substance/The level of expressed mRNA in the absence of chemical substance (yeast gene YKL091C): 2.0
The level of expressed mRNA in the presence of chemical substance/The level of expressed mRNA in the absence of chemical substance (yeast gene YKL104C): 1.1
level of expressed mRNA in the presence/in the absence of chemical substance (yeast gene YKL148C): 1.0
The level of expressed mRNA in the presence of chemical substance/The level of expressed mRNA in the absence of chemical substance (yeast gene YKL152C): 1.7
level of expressed mRNA in the presence/in the absence of chemical substance (yeast gene YKL157W): 1.5
The level of expressed mRNA in the presence of chemical substance/The level of expressed mRNA in the absence of chemical substance (yeast gene YKL213C): 1.6
The level of expressed mRNA in the presence of chemical substance/The level of expressed mRNA in the absence of chemical substance (yeast gene YKL215C): 0.9
The level of expressed mRNA in the presence of chemical substance/The level of expressed mRNA in the absence of chemical substance (yeast gene YKR009C): 2.5
level of expressed mRNA in the presence/in the absence of chemical substance (yeast gene YKR034W): 1.0
The level of expressed mRNA in the presence of chemical substance/The level of expressed mRNA in the absence of chemical substance (yeast gene YKR039W): 1.1
The level of expressed mRNA in the presence of chemical substance/The level of expressed mRNA in the absence of chemical substance (yeast gene YLL058W): 1.3
level of expressed mRNA in the presence/in the absence of chemical substance (yeast gene YLR006C): 1.0
level of expressed mRNA in the presence/in the absence of chemical substance (yeast gene YLR044C): 0.9
level of expressed mRNA in the presence/in the absence of chemical substance (yeast gene YLR056W): 1.1
level of expressed mRNA in the presence/in the absence of chemical substance (yeast gene YLR058C): 0.8
level of expressed mRNA in the presence/in the absence of chemical substance (yeast gene YLR081W): 0.9
level of expressed mRNA in the presence/in the absence of chemical substance (yeast gene YLR089C): 1.3
The level of expressed mRNA in the presence of chemical substance/The level of expressed mRNA in the absence of chemical substance (yeast gene YLR180W): 0.7
The level of expressed mRNA in the presence of chemical substance/The level of expressed mRNA in the absence of chemical substance (yeast gene YLR273C): 1.0
level of expressed mRNA in the presence/in the absence of chemical substance (yeast gene YLR284C): 8.1
The level of expressed mRNA in the presence of chemical substance/The level of expressed mRNA in the absence of chemical substance (yeast gene YLR299W): 1.4
The level of expressed mRNA in the presence of chemical substance/The level of expressed mRNA in the absence of chemical substance (yeast gene YLR300W): 0.5
level of expressed mRNA in the presence/in the absence of chemical substance (yeast gene YLR304C): 0.7
The level of expressed mRNA in the presence of chemical substance/The level of expressed mRNA in the absence of chemical substance (yeast gene YLR307W): 1.0
The level of expressed mRNA in the presence of chemical substance/The level of expressed mRNA in the absence of chemical substance (yeast gene YLR348C): 1.0
level of expressed mRNA in the presence/in the absence of chemical substance (yeast gene YLR354C): 1.5
level of expressed mRNA in the presence/in the absence of chemical substance (yeast gene YLR372W): 0.6
level of expressed mRNA in the presence/in the absence of chemical substance (yeast gene YML022W): 0.7
The level of expressed mRNA in the presence of chemical substance/The level of expressed mRNA in the absence of chemical substance (yeast gene YML054C): 1.6
The level of expressed mRNA in the presence of chemical substance/The level of expressed mRNA in the absence of chemical substance (yeast gene YML070W): 1.3
The level of expressed mRNA in the presence of chemical substance/The level of expressed mRNA in the absence of chemical substance (yeast gene YML100W): 1.5
The level of expressed mRNA in the presence of chemical substance/The level of expressed mRNA in the absence of chemical substance (yeast gene YMR008C): 1.9
level of expressed mRNA in the presence/in the absence of chemical substance (yeast gene YMR011W): 1.6
level of expressed mRNA in the presence/in the absence of chemical substance (yeast gene YMR015C): 1.0
The level of expressed mRNA in the presence of chemical substance/The level of expressed mRNA in the absence of chemical substance (yeast gene YMR020W): 2.2
The level of expressed mRNA in the presence of chemical substance/The level of expressed mRNA in the absence of chemical substance (yeast gene YMR081C): 3.0
level of expressed mRNA in the presence/in the absence of chemical substance (yeast gene YMR083W): 1.1
The level of expressed mRNA in the presence of chemical substance/The level of expressed mRNA in the absence of chemical substance (yeast gene YMR105C): 2.6
The level of expressed mRNA in the presence of chemical substance/The level of expressed mRNA in the absence of chemical substance (yeast gene YMR189W): 0.8
level of expressed mRNA in the presence/in the absence of chemical substance (yeast gene YMR205C): 0.5
level of expressed mRNA in the presence/in the absence of chemical substance (yeast gene YMR261C): 1.1
The level of expressed mRNA in the presence of chemical substance/The level of expressed mRNA in the absence of chemical substance (yeast gene YMR271C): 2.2
The level of expressed mRNA in the presence of chemical substance/The level of expressed mRNA in the absence of chemical substance (yeast gene YMR296C): 0.7
level of expressed mRNA in the presence/in the absence of chemical substance (yeast gene YMR323W): 0.6
The level of expressed mRNA in the presence of chemical substance/The level of expressed mRNA in the absence of chemical substance (yeast gene YNL012W): 1.5
level of expressed mRNA in the presence/in the absence of chemical substance (yeast gene YNL025C): 1.3
The level of expressed mRNA in the presence of chemical substance/The level of expressed mRNA in the absence of chemical substance (yeast gene YNL045W): 1.1
The level of expressed mRNA in the presence of chemical substance/The level of expressed mRNA in the absence of chemical substance (yeast gene YNL104C): 0.9
The level of expressed mRNA in the presence of chemical substance/The level of expressed mRNA in the absence of chemical substance (yeast gene YNL106C): 0.9
The level of expressed mRNA in the presence of chemical substance/The level of expressed mRNA in the absence of chemical substance (yeast gene YNL169C): 1.3
level of expressed mRNA in the presence/in the absence of chemical substance (yeast gene YNL192W): 2.8
The level of expressed mRNA in the presence of chemical substance/The level of expressed mRNA in the absence of chemical substance (yeast gene YNL231C): 4.0
The level of expressed mRNA in the presence of chemical substance/The level of expressed mRNA in the absence of chemical substance (yeast gene YNL322C): 1.0
The level of expressed mRNA in the presence of chemical substance/The level of expressed mRNA in the absence of chemical substance (yeast gene YNL331C): 1.3
The level of expressed mRNA in the presence of chemical substance/The level of expressed mRNA in the absence of chemical substance (yeast gene YNL332W): 1.0
The level of expressed mRNA in the presence of chemical substance/The level of expressed mRNA in the absence of chemical substance (yeast gene YNR019W): 2.0
The level of expressed mRNA in the presence of chemical substance/The level of expressed mRNA in the absence of chemical substance (yeast gene YNR033W): 1.1
The level of expressed mRNA in the presence of chemical substance/The level of expressed mRNA in the absence of chemical substance (yeast gene YNR059W): 2.2
The level of expressed mRNA in the presence of chemical substance/The level of expressed mRNA in the absence of chemical substance (yeast gene YOL058W): 0.8
level of expressed mRNA in the presence/in the absence of chemical substance (yeast gene YOL086C): 1.3
level of expressed mRNA in the presence/in the absence of chemical substance (yeast gene YOL108C): 2.7
level of expressed mRNA in the presence/in the absence of chemical substance (yeast gene YOL116W): 1.4
The level of expressed mRNA in the presence of chemical substance/The level of expressed mRNA in the absence of chemical substance (yeast gene YOL126C): 2.4
The level of expressed mRNA in the presence of chemical substance/The level of expressed mRNA in the absence of chemical substance (yeast gene YOL153C): 1.7
level of expressed mRNA in the presence/in the absence of chemical substance (yeast gene YOL156W): 0.9
The level of expressed mRNA in the presence of chemical substance/The level of expressed mRNA in the absence of chemical substance (yeast gene YOL165C): 1.0
level of expressed mRNA in the presence/in the absence of chemical substance (yeast gene YOR002W): 1.1
level of expressed mRNA in the presence/in the absence of chemical substance (yeast gene YOR085W): 0.9
The level of expressed mRNA in the presence of chemical substance/The level of expressed mRNA in the absence of chemical substance (yeast gene YOR099W): 2.3
level of expressed mRNA in the presence/in the absence of chemical substance (yeast gene YOR103C): 1.5
level of expressed mRNA in the presence/in the absence of chemical substance (yeast gene YOR108W): 1.1
level of expressed mRNA in the presence/in the absence of chemical substance (yeast gene YOR128C): 1.2
The level of expressed mRNA in the presence of chemical substance/The level of expressed mRNA in the absence of chemical substance (yeast gene YOR130C): 1.1
level of expressed mRNA in the presence/in the absence of chemical substance (yeast gene YOR142W): 1.0
The level of expressed mRNA in the presence of chemical substance/The level of expressed mRNA in the absence of chemical substance (yeast gene YOR153W): 3.1
level of expressed mRNA in the presence/in the absence of chemical substance (yeast gene YOR176W): 2.1
level of expressed mRNA in the presence/in the absence of chemical substance (yeast gene YOR178C): 1.5
level of expressed mRNA in the presence/in the absence of chemical substance (yeast gene YOR251C): 1.3
The level of expressed mRNA in the presence of chemical substance/The level of expressed mRNA in the absence of chemical substance (yeast gene YOR336W): 1.0
The level of expressed mRNA in the presence of chemical substance/The level of expressed mRNA in the absence of chemical substance (yeast gene YOR347C): 1.3
level of expressed mRNA in the presence/in the absence of chemical substance (yeast gene YOR348C): 0.9
The level of expressed mRNA in the presence of chemical substance/The level of expressed mRNA in the absence of chemical substance (yeast gene YPL017C): 0.8
level of expressed mRNA in the presence/in the absence of chemical substance (yeast gene YPL028W): 1.8
level of expressed mRNA in the presence/in the absence of chemical substance (yeast gene YPL057C): 2.0
level of expressed mRNA in the presence/in the absence of chemical substance (yeast gene YPL135W): 1.7
The level of expressed mRNA in the presence of chemical substance/The level of expressed mRNA in the absence of chemical substance (yeast gene YPL147W): 3.6
level of expressed mRNA in the presence/in the absence of chemical substance (yeast gene YPL148C): 1.1
The level of expressed mRNA in the presence of chemical substance/The level of expressed mRNA in the absence of chemical substance (yeast gene YPR026W): 1.3
level of expressed mRNA in the presence/in the absence of chemical substance (yeast gene YPR113W): 1.9
level of expressed mRNA in the presence/in the absence of chemical substance (yeast gene YPR165W): 2.7
The level of expressed mRNA in the presence of chemical substance/The level of expressed mRNA in the absence of chemical substance (yeast gene YPR167C): 1.4
level of expressed mRNA in the presence/in the absence of chemical substance (yeast gene YPR183W): 1.0
